In US20020155381A1, “Optical data carrier comprising a light-absorbent compound having a plurality of chromophoric centres in the information layer” (priority 2001, published 2002):
Values belong to the molecule of their own block, whether it stands above or below them.

Columns and labels:
Format in all cases: physicochemical
[1] = Spin coating on fused silica support: film quality and film thickness from transmission and reflection spectra; conditions: for kind of film obtained by spin coating: 1-2 parts of solid per 100 in TFP or THF; for film thickness: spin coated from 1 part of solid to 99 parts of TFP, before vacuum
Method: A 1/1 mixture (by mass) of substances of the following formulae was dissolved in tetrafluoropropanol (TFP) in a mass ratio of 2 parts of solid to 98 parts of TFP. […] Evaluation of the transmission and reflection spectra indicated a film thickness of 165 nm. [drawing 62]
(§1) Determination of the complex index of refraction and the thickness of the layer of the organic substances by means of transmission and reflection spectra:
(§2) The transmission and reflection spectra of the layer systems film/fused silica or SiN/film/fused silica or SiN/fused silica were determined with perpendicular incidence of a parallel beam of light in a wavelength range of from 200 nm to 1 700 nm. […] The reflected light was detected at an angle of 172° relative to the direction of incidence. Two different thicknesses of the organic film were in each case produced by spin coating. The thickness of the layer was adjusted by means of the solution concentration. The thicknesses were in the range from 50 nm to 500 nm. To evaluate the transmission and reflection spectra, the known Fresnel formulae were employed and the interferences caused by multiple reflection in the layer system were taken into account. A simultaneous least squares fit of the measured transmission and reflection spectra to the calculated spectra of the two layer systems of differing thickness enabled the layer thicknesses and the complex index of refraction of the organic substance to be determined at each wavelength. For this purpose, the index of refraction of the fused silica support has to be known. The index of refraction curve of the fused silica substrate in this spectral range was determined independently on an uncoated substrate.

[2] = Vacuum treatment of the spin-coated film (simulated sputtering conditions), layer thickness afterwards; conditions: vacuum ~10^-6 mbar, 1 hour, room temperature
Method: This film was subjected to a vacuum (pressure ˜10^−6 mbar) for 1 hour at room temperature to simulate the conditions when applying metallic or dielectric layers by sputtering during the production of optical data carriers.
as §1, §2

[3] = SiN vapour deposition on the organic film, apparent thickness of the organic film
Method: A layer of SiN was subsequently applied by vapour deposition on top of the layer which had been pretreated in the above-described manner. Vapour deposition was carried out by electric heating of Si3N4 in a molybdenum boat under reduced pressure. The pressure during the vapour deposition process was ˜10^−4 mbar, and the deposition rate was ˜4-5 Angström per second. To determine the complex index of refraction of the deposited SiN layer, control experiments were carried out on plain fused silica plates. The thickness of the SiN layer was determined by means of a profiler (Tencor Alpha Step 500 Surface Profiler). In turn, evaluation of the transmission and reflection spectra of the layer system taking into account the complex index of refraction and the thickness of the SiN layer enabled the apparent thickness of the organic film to be determined. It was 94 nm. […]
The transmission and reflection spectra of the layer systems film/fused silica or SiN/film/fused silica or SiN/fused silica were determined with perpendicular incidence of a parallel beam of light in a wavelength range of from 200 nm to 1 700 nm. […] The reflected light was detected at an angle of 172° relative to the direction of incidence. […] The index of refraction curve of the fused silica substrate in this spectral range was determined independently on an uncoated substrate.

[4] = Solubility in coating solvent

Compound: CC1(C)CC(=O)C(=Cc2ccc(N3CCN(c4ccc(C=C5C(=O)CC(C)(C)CC5=O)o4)CC3)o2)C(=O)C1 [Example 10]
solubility ([4]; in TFP (tetrafluoropropanol)): 2%

Compound: CN(CCC#N)c1ccc(/C=C/C2=[N+](CCCC[N+]3=C(/C=C/c4ccc(N(C)CCC#N)cc4)C(C)(C)c4ccccc43)c3ccccc3C2(C)C)cc1 [Example 13]
solubility ([4]; in TFP (tetrafluoropropanol)): 2%

Compound: CN(CCOC(=O)CCC(=O)OCCN(C)c1ccc(C(C#N)=C(C#N)C#N)cc1)c1ccc(C(C#N)=C(C#N)C#N)cc1 [Example 5]
solubility ([4]; in TFP (tetrafluoropropanol)): 1%

Compound: COc1cc2c(cc1OC)C(C)(C)C/C2=C(/C#N)C(=O)OCCOC(=O)/C(C#N)=C1\CC(C)(C)c2cc(OC)c(OC)cc21 [Example II]
kind of film obtained by spin coating [1]: transparent film
film thickness [1]: 85 nm
retention of the substance after vacuum treatment [2]: fully retained
total thickness d of the layer after vacuum treatment [2]: 85 nm

The remaining lines, values ahead:

kind of film obtained by spin coating [1]: transparent film
film thickness [1]: 153 nm
retention of the substance after vacuum treatment [2]: virtually fully retained
total thickness d of the layer after vacuum treatment [2]: 143 nm
change of the layer by the SiN vapour deposition process ([3]; SiN deposited at ~10^-4 mbar on vacuum-pretreated layer): the layer has not been changed
apparent thickness of the organic film after SiN vapour deposition ([3]; SiN deposited at ~10^-4 mbar, ~4-5 Angström per second, on vacuum-pretreated layer): 160 nm
Compound: Cc1ccc(/C=C(\C#N)C(=O)OCC(C)(COC(=O)/C(C#N)=C/c2ccc(C)o2)COC(=O)/C(C#N)=C/c2ccc(C)o2)o1 [Example V]

solubility ([4]; in diacetone alcohol): 2%
Compound: N#C/C(=C\c1cccn1CCCn1cccc1/C=C(\C#N)c1ccccc1)c1ccccc1 [Example 9]

solubility ([4]; in TFP (tetrafluoropropanol)): 2%
Compound: CCN(CC)c1ccc(/C=C/c2cc[n+](Cc3ccccc3C[n+]3ccc(/C=C/c4ccc(N(CC)CC)cc4)cc3)cc2)cc1 [Example 12]

kind of film obtained by spin coating [1]: crystalline film
Compound: CCCOC(=O)/C(C#N)=C/c1ccc(C)o1 [Example IV, reference compound]
